Assay results: PubChem BioAssay (NCI)
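A five-concentration, 48-hour dose response in 96-well plates underlies each endpoint, interpolated linearly between surrounding concentrations. GI50 is the concentration that inhibits growth by half. TGI: concentration producing complete growth inhibition.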

Legend:
Assay in all cases: NCI tumour cell line growth inhibition, 48 h
SF-295 CNS = system: SF-295 CNS
HS 578T breast = system: HS 578T breast
ACHN renal = system: ACHN renal
NCI-H23 lung = system: NCI-H23 lung
HOP-62 NSCLC = system: HOP-62 NSCLC
OVCAR-8 ovarian = system: OVCAR-8 ovarian
SF-268 CNS = system: SF-268 CNS
NCI/ADR-RES ovarian = system: NCI/ADR-RES ovarian
M14 melanoma = system: M14 melanoma
MCF7 breast = system: MCF7 breast
NCI-H226 lung = system: NCI-H226 lung
RPMI-8226 leukemia = system: RPMI-8226 leukemia
SR leukemia = system: SR leukemia
EKVX NSCLC = system: EKVX NSCLC
NCI-H460 lung = system: NCI-H460 lung
SK-MEL-28 melanoma = system: SK-MEL-28 melanoma
MDA-MB-231 breast = system: MDA-MB-231 breast
OVCAR-4 ovarian = system: OVCAR-4 ovarian
RXF 393 renal = system: RXF 393 renal
KM12 colon = system: KM12 colon
SK-MEL-2 melanoma = system: SK-MEL-2 melanoma
SW-620 colon = system: SW-620 colon
TK-10 renal = system: TK-10 renal
U251 CNS = system: U251 CNS
UACC-62 melanoma = system: UACC-62 melanoma
SNB-75 CNS = system: SNB-75 CNS
NCI-H522 lung = system: NCI-H522 lung
SNB-19 CNS = system: SNB-19 CNS
K-562 leukemia = system: K-562 leukemia
T-47D breast = system: T-47D breast
CAKI-1 renal = system: CAKI-1 renal
SF-539 CNS = system: SF-539 CNS
DU-145 prostate = system: DU-145 prostate
A549 NSCLC = system: A549 NSCLC
UO-31 renal = system: UO-31 renal
HCT-15 colon = system: HCT-15 colon
OVCAR-3 ovarian = system: OVCAR-3 ovarian
HL-60(TB) leukemia = system: HL-60(TB) leukemia
MALME-3M melanoma = system: MALME-3M melanoma
SK-OV-3 ovarian = system: SK-OV-3 ovarian
IGROV1 ovarian = system: IGROV1 ovarian
MOLT-4 leukemia = system: MOLT-4 leukemia
A498 renal = system: A498 renal
HOP-92 NSCLC = system: HOP-92 NSCLC
LOX IMVI melanoma = system: LOX IMVI melanoma
SN12C renal = system: SN12C renal
CCRF-CEM leukemia = system: CCRF-CEM leukemia
HCC-2998 colon = system: HCC-2998 colon
HCT-116 colon = system: HCT-116 colon
MDA-MB-435 = system: MDA-MB-435
786-0 renal = system: 786-0 renal
PC-3 prostate = system: PC-3 prostate
HT29 colon = system: HT29 colon
UACC-257 melanoma = system: UACC-257 melanoma
SK-MEL-5 melanoma = system: SK-MEL-5 melanoma
COLO 205 colon = system: COLO 205 colon
OVCAR-5 ovarian = system: OVCAR-5 ovarian
BT-549 breast = system: BT-549 breast

For CNC(=O)OC(COC)CN1CCN(c2ccccc2C)CC1 (stereo not given), the TGI (SF-295 CNS) was greater than 10000 nM, the TGI (HS 578T breast) was greater than 10000 nM and the TGI (ACHN renal) was greater than 10000 nM. For the same compound, the TGI (NCI-H23 lung) was greater than 10000 nM, the TGI (HOP-62 NSCLC) was greater than 10000 nM and the TGI (OVCAR-8 ovarian) was greater than 10000 nM. For the same compound, the TGI (SF-268 CNS) was greater than 10000 nM, the TGI (NCI/ADR-RES ovarian) was greater than 10000 nM and the TGI (M14 melanoma) was greater than 10000 nM. The TGI (MCF7 breast) was greater than 10000 nM, the TGI (NCI-H226 lung) was greater than 10000 nM and the TGI (RPMI-8226 leukemia) was greater than 10000 nM. The TGI (SR leukemia) was greater than 10000 nM, the TGI (EKVX NSCLC) was greater than 10000 nM and the TGI (NCI-H460 lung) was greater than 10000 nM. For the same compound, the TGI (SK-MEL-28 melanoma) was greater than 10000 nM, the TGI (MDA-MB-231 breast) was greater than 10000 nM and the TGI (OVCAR-4 ovarian) was greater than 10000 nM. It also gave a TGI (RXF 393 renal) greater than 10000 nM, a TGI (KM12 colon) greater than 10000 nM and a TGI (SK-MEL-2 melanoma) greater than 10000 nM. The TGI (SW-620 colon) was greater than 10000 nM, the TGI (TK-10 renal) was greater than 10000 nM and the TGI (U251 CNS) was greater than 10000 nM. It also gave a TGI (UACC-62 melanoma) greater than 10000 nM, a TGI (SNB-75 CNS) greater than 10000 nM and a TGI (NCI-H522 lung) greater than 10000 nM. The TGI (SNB-19 CNS) was greater than 10000 nM, the TGI (K-562 leukemia) was greater than 10000 nM and the TGI (T-47D breast) was greater than 10000 nM. It also gave a TGI (CAKI-1 renal) greater than 10000 nM, a TGI (SF-539 CNS) greater than 10000 nM and a TGI (DU-145 prostate) greater than 10000 nM. The TGI (A549 NSCLC) was greater than 10000 nM, the TGI (UO-31 renal) was greater than 10000 nM and the TGI (HCT-15 colon) was greater than 10000 nM. The TGI (OVCAR-3 ovarian) was greater than 10000 nM, the TGI (HL-60(TB) leukemia) was greater than 10000 nM and the TGI (MALME-3M melanoma) was greater than 10000 nM. The TGI (SK-OV-3 ovarian) was greater than 10000 nM, the TGI (IGROV1 ovarian) was greater than 10000 nM and the TGI (MOLT-4 leukemia) was greater than 10000 nM. For the same compound, the TGI (A498 renal) was greater than 10000 nM, the TGI (HOP-92 NSCLC) was greater than 10000 nM and the TGI (LOX IMVI melanoma) was greater than 10000 nM. The TGI (SN12C renal) was greater than 10000 nM, the TGI (CCRF-CEM leukemia) was greater than 10000 nM and the TGI (HCC-2998 colon) was greater than 10000 nM. It also gave a TGI (HCT-116 colon) greater than 10000 nM, a TGI (MDA-MB-435) greater than 10000 nM and a TGI (786-0 renal) greater than 10000 nM. For the same compound, the TGI (PC-3 prostate) was greater than 10000 nM, the TGI (HT29 colon) was greater than 10000 nM and the TGI (UACC-257 melanoma) was greater than 10000 nM. The TGI (SK-MEL-5 melanoma) was greater than 10000 nM and the TGI (COLO 205 colon) was greater than 10000 nM.
Compound CC1C2=C(CCCC2=O)N(c2ccc(Cl)cc2)C2=C1C(=O)CCC2 has a TGI (HS 578T breast) greater than 100000 nM, a TGI (ACHN renal) greater than 100000 nM and a TGI (NCI-H23 lung) greater than 100000 nM. It also gave a TGI (OVCAR-8 ovarian) greater than 100000 nM, a TGI (SF-268 CNS) greater than 100000 nM and a TGI (NCI/ADR-RES ovarian) greater than 100000 nM. It also gave a TGI (M14 melanoma) greater than 100000 nM, a TGI (MCF7 breast) greater than 100000 nM and a TGI (NCI-H226 lung) greater than 100000 nM. For the same compound, the TGI (RPMI-8226 leukemia) was greater than 100000 nM, the TGI (SR leukemia) was greater than 100000 nM and the TGI (EKVX NSCLC) was greater than 100000 nM. The TGI (NCI-H460 lung) was greater than 100000 nM, the TGI (OVCAR-5 ovarian) was greater than 100000 nM and the TGI (SK-MEL-28 melanoma) was greater than 100000 nM. For the same compound, the TGI (OVCAR-4 ovarian) was greater than 100000 nM, the TGI (RXF 393 renal) was 78400 nM and the TGI (KM12 colon) was greater than 100000 nM. It also gave a TGI (SW-620 colon) greater than 100000 nM, a TGI (TK-10 renal) greater than 100000 nM and a TGI (U251 CNS) greater than 100000 nM. The TGI (UACC-62 melanoma) was greater than 100000 nM, the TGI (SNB-75 CNS) was greater than 100000 nM and the TGI (SNB-19 CNS) was greater than 100000 nM. It also gave a TGI (K-562 leukemia) greater than 100000 nM, a TGI (CAKI-1 renal) greater than 100000 nM and a TGI (SF-539 CNS) greater than 100000 nM. It also gave a TGI (A549 NSCLC) greater than 100000 nM, a TGI (UO-31 renal) greater than 100000 nM and a TGI (HCT-15 colon) greater than 100000 nM. The TGI (OVCAR-3 ovarian) was greater than 100000 nM, the TGI (HL-60(TB) leukemia) was greater than 100000 nM and the TGI (BT-549 breast) was greater than 100000 nM. For the same compound, the TGI (SK-OV-3 ovarian) was greater than 100000 nM, the TGI (IGROV1 ovarian) was greater than 100000 nM and the TGI (MOLT-4 leukemia) was greater than 100000 nM. The TGI (A498 renal) was greater than 100000 nM, the TGI (HOP-92 NSCLC) was greater than 100000 nM and the TGI (LOX IMVI melanoma) was greater than 100000 nM. For the same compound, the TGI (SN12C renal) was greater than 100000 nM, the TGI (CCRF-CEM leukemia) was greater than 100000 nM and the TGI (HCC-2998 colon) was greater than 100000 nM. The TGI (786-0 renal) was greater than 100000 nM, the TGI (PC-3 prostate) was greater than 100000 nM and the TGI (HT29 colon) was greater than 100000 nM. For the same compound, the TGI (SK-MEL-5 melanoma) was greater than 100000 nM.
With CCCCCCCC(=O)OCC(=O)[C@]1(O)Cc2c(O)c3c(c(O)c2[C@@H](OC2CC(N)C(O)C(C)O2)C1)C(=O)c1c(OC)cccc1C3=O (stereo not given in full) the GI50 (SF-295 CNS) was 47.1 nM, the TGI (SF-295 CNS) was 1230 nM and the GI50 (NCI-H23 lung) was 55.2 nM. It also gave a TGI (NCI-H23 lung) of 526 nM, a GI50 (HOP-62 NSCLC) of 162 nM and a TGI (HOP-62 NSCLC) of 1740 nM. For the same compound, the GI50 (NCI/ADR-RES ovarian) was 1670 nM, the TGI (NCI/ADR-RES ovarian) was 4410 nM and the GI50 (M14 melanoma) was 86.6 nM. The TGI (M14 melanoma) was 634 nM, the TGI (MCF7 breast) was 417 nM and the GI50 (EKVX NSCLC) was 236 nM. The TGI (EKVX NSCLC) was 1580 nM, the TGI (NCI-H460 lung) was 196 nM and the GI50 (OVCAR-5 ovarian) was 422 nM. It also gave a TGI (OVCAR-5 ovarian) of 1240 nM, a GI50 (SK-MEL-28 melanoma) of 199 nM and a TGI (SK-MEL-28 melanoma) of 902 nM. For the same compound, the GI50 (MDA-MB-231 breast) was 578 nM, the TGI (MDA-MB-231 breast) was 2170 nM and the GI50 (KM12 colon) was 188 nM. The TGI (KM12 colon) was 758 nM, the GI50 (SW-620 colon) was 40.3 nM and the TGI (SW-620 colon) was 1150 nM. For the same compound, the GI50 (TK-10 renal) was 265 nM, the TGI (TK-10 renal) was 2000 nM and the GI50 (UACC-62 melanoma) was 33 nM. The TGI (UACC-62 melanoma) was 494 nM, the GI50 (SNB-19 CNS) was 60.1 nM and the TGI (SNB-19 CNS) was 1250 nM. The GI50 (T-47D breast) was 51.2 nM, the TGI (T-47D breast) was 1200 nM and the GI50 (CAKI-1 renal) was 558 nM. The TGI (CAKI-1 renal) was 2430 nM, the GI50 (SF-539 CNS) was 166 nM and the TGI (SF-539 CNS) was 1000 nM. The GI50 (DU-145 prostate) was 26.6 nM, the TGI (DU-145 prostate) was 284 nM and the GI50 (HCT-15 colon) was 703 nM. It also gave a TGI (HCT-15 colon) of 2140 nM, a GI50 (HL-60(TB) leukemia) of 26.3 nM and a TGI (HL-60(TB) leukemia) of 221 nM. For the same compound, the GI50 (SK-OV-3 ovarian) was 135 nM, the TGI (SK-OV-3 ovarian) was 879 nM and the GI50 (A498 renal) was 215 nM. For the same compound, the TGI (A498 renal) was 951 nM, the GI50 (HCC-2998 colon) was 137 nM and the TGI (HCC-2998 colon) was 767 nM. For the same compound, the GI50 (HCT-116 colon) was 74.2 nM, the TGI (HCT-116 colon) was 1090 nM and the GI50 (MDA-MB-435) was 325 nM. For the same compound, the TGI (MDA-MB-435) was 1880 nM, the GI50 (786-0 renal) was 62.2 nM and the TGI (786-0 renal) was 1250 nM. For the same compound, the GI50 (SK-MEL-5 melanoma) was 42.7 nM, the TGI (SK-MEL-5 melanoma) was 185 nM and the GI50 (COLO 205 colon) was 81.2 nM. For the same compound, the TGI (COLO 205 colon) was 778 nM.
